Read-outs that look alike come from different tables or passages of the source. Bounds are passed on as bounds.

For orientation: EC50 means the concentration needed to bring the measured effect to its halfway point.

One data set deals with HeLa cells. Nature of the data set: Cytotoxicity assay in HeLa cells (MTT dye reduction, CC50). The following applies: cytotoxicity; Yes = CC50 above 100 uM, No = not. As for the experimental part:
• Virus production—Human embryonic Kidney cell line, 293, propagated in Dulbecco's Modified Eagle Medium (Life Technologies, Gaithersburg, Md.) containing 10% fetal Bovine serum (FBS, Sigma, St. Louis, Mo.). • Virus infection—Human epithelial cell line, HeLa, expressing the HIV-1 receptors CD4 and CCR^5 was propagated in Dulbecco's Modified Eagle Medium (Life Technologies, Gaithersburg, Md.) containing 10% fetal Bovine serum (FBS, Sigma, St. Louis, Mo.) and supplemented with 0.2 mg/mL Geneticin (Life Technologies, Gaithersburg, Md.) and 0.4 mg/mL Zeocin (Invitrogen, Carlsbad, Calif.). […] Transfections were performed using lipofectAMINE PLUS reagent as described by the manufacturer (Life Technologies, Gaithersburg, Md.). Experiment • 1. Compound was added to HeLa CD4 CCR5 cells plated in 96 well plates at a cell density of 5×10^4 cells per well in 100 μl Dulbecco's Modified Eagle Medium containing 10% fetal Bovine serum at a concentration of […]. • 2. 100 μl of single-round infectious reporter virus in Dulbecco's Modified Eagle Medium was then added to the plated cells and compound at an approximate multiplicity of infection (MOI) of 0.01, resulting in a final volume of 200 μl per well and a final compound concentration of <10 μM. • 3. Samples were harvested 72 h after infection. • 4. Viral infection was monitored by measuring luciferase expression from viral DNA in the infected cells using a luciferase reporter gene assay kit (Roche Molecular Biochemicals, Indianapolis, Ind.). Infected cell supernatants were removed and 50 μl of Dulbecco's Modified Eagle Medium (without phenol red) and 50 μl of luciferase assay reagent reconstituted as described by the manufacturer (Roche Molecular Biochemicals, Indianapolis, Ind.) was added per well. Luciferase activity was then quantified by measuring luminescence using a Wallac microbeta scintillation counter. • 5. […] An EC50 provides a method for comparing the antiviral potency of the compounds of this invention. The effective concentration for fifty percent inhibition (EC50) was calculated with the Microsoft Excel Xlfit curve fitting software. For each compound, curves were generated from percent inhibition calculated at 10 different concentrations by using a four paramenter logistic model (model 205). Table 1 is the key for the data in Tables 2-4. Cytoxicity assays were conducted with the same HeLa using methodology well known in the art.
(§1) For accuracy, the determined measure of viral inhibition is an EC50; but the minimum plasma concentrations which should be maintained in a patient is generally believed to be at least four or five fold higher. […] Lower is better. • 4) Estimating potential exposure in man by measuring parameters such as AUC and rate of clearance by oral and iv dosing in rats. High exposure and low clearance was desired.
A general note: Formazan colour is commonly taken as a measure of viable cells.

The next data set deals with HIV-1. Nature of the data set: HIV-1 single-round infectious luciferase reporter virus (pseudotype) assay in HeLa CD4 CCR5 cells. The data set is classed as cell-based. The method in brief:
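HeLa CD4 CCR5 cells (5×10^4/well, DMEM + 10% FBS) were treated with compound (final <10 μM) and infected with single-round luciferase reporter virus made in 293 cells, at MOI ~0.01. Luciferase was read 72 h post infection. EC50 came from 10-concentration percent-inhibition curves fitted to a four-parameter logistic model.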
(In general: In a reporter assay the amount or activity of a reporter protein is the signal.)

A short description of data set [1]: Metabolic stability in pooled human liver microsomes (HLM). The following applies: pooled human liver microsomes, 3 μM drug; Low/Intermediate/High. As to the method: Metabolic Stability Studies of compounds in Liver Microsomes. The metabolic stability of compounds were investigated in pooled liver microsomes from humans. The human liver microsomes were obtained from BD Gentest (Lot #16, Woburn, Mass.) with a protein concentration of 20 mg/ml and a total cytochrome P450 (CYP) concentration of 0.55 nmol/mg protein. A stock solution of drug was prepared in acetonitrile at 1 mM. […] The incubation media consisted of potassium phosphate buffer (0.1 M, pH 7.4), liver microsomes (final concentration 0.9 mg/ml), magnesium chloride (0.033 mM), and a NADPH-regenerating system. […] The test compound was pre-incubated in the media for 2 min. The reaction was initiated by the addition of the cofactors. The incubation was carried out at 37° C. for 10 min. The reaction was terminated by drawing an aliquot of 100 μL from the incubation and adding into 200 μL of acetonitrile containing a reference compound as an […] analytical standard. Following vortex-mixing and centrifugation, an aliquot of 10 μL of the supernatant was analyzed by LC/MS.
GUIDELINES can be used to categorized test substances as low, intermediate or highly cleared compounds.
as §1
The stability of compounds were also evaluated to determine metabolic stability when incubated in in vitro preparations of human liver microsomes (HLM). This is one commonly used predictive system for evaluating the potential for human metabolism and projecting clearance rates in man. Compounds with low clearance rates were most desireable.
In general terms: Liver microsomes are a subcellular fraction often used to study metabolism.

[2] abbreviates: Human immunodeficiency virus 1, HeLa-CD4/CCR5, read-out: EC50 Group from TABLE 1, HeLa CD4 CCR5 cells, single-round infectious luciferase reporter virus.
Where [3] appears, read: Human immunodeficiency virus 1, HeLa-CD4/CCR5, read-out: EC50 category, HIV-1 single-round reporter virus assay, category 1/2/3 per Table A1 key.
Where [4] appears, read: Human immunodeficiency virus 1, HeLa-CD4/CCR5, read-out: EC50 Group from Table 1, Table 4, HeLa CD4 CCR5 cells, single-round luciferase reporter virus.
The mark [5] stands for this setting: Human immunodeficiency virus 1, HeLa-CD4/CCR5, read-out: EC50 Group from Table 1, Table 2-1, HeLa CD4 CCR5 cells, single-round luciferase reporter virus.

With `COc1cnc(-c2ncco2)c2[nH]cc(C(=O)C(=O)N3CCN(C(=O)c4ccccc4)CC3)c12` [Example 74, 1-benzoyl-4-[(4-methoxy-7-(oxazol-2-yl)-6-azaindol-3-yl)-oxoacetyl]piperazine], in the data set with HeLa cells, the “CC50 > 100 uM” value is given as “No”. In addition, the values for the EC50 with HIV-1 (setting [2]) and in the data set with HIV-1 (setting [3]) were less than 1000 nM and 0.2 to 1000 nM, respectively. Also, in data set [1], the “HLM predicted human clearance class” value is given as “Intermediate (0.101-0.200)”.

On to `COc1cnc(-c2cnc(NC(C)=O)s2)c2[nH]cc(C(=O)C(=O)N3CCN(C(=O)c4ccccc4)CC3)c12` [Example 78, 1-benzoyl-4-[(4-methoxy-7-(2-acetylamino-thiazol-5-yl)-6-azaindol-3-yl)-oxoacetyl]piperazine], for which the “CC50 > 100 uM” value in the data set with HeLa cells is given as “Yes”. In addition, the EC50 was less than 1000 nM in the data set on HIV-1 (setting [2]) and 0.2 to 1000 nM in the data set on HIV-1 (setting [3]). For the same compound, in data set [1], the “HLM predicted human clearance class” value was “Intermediate (0.101-0.200)”.

As for `C[C@@H]1CN(C(=O)c2ccccc2)CCN1C(=O)C(=O)c1c[nH]c2c(-n3cccn3)ncc(Br)c12` [Example 139], the “CC50 > 100 uM” value with HeLa cells was “Yes”. Also, the EC50 in the data set with HIV-1 (setting [2]) was less than 1000 nM; with HIV-1 (setting [3]), 0.2 to 1000 nM. The “HLM predicted human clearance class” value in data set [1] is on record as “High (0.201-0.300)”.

As for `O=C(C(=O)N1CCN(C(=O)c2ccccc2)CC1)c1c[nH]c2c(-c3ncco3)ncc(F)c12` [Example 140], the “CC50 > 100 uM” value with HeLa cells is “Yes”. Moreover, the EC50 is less than 1000 nM in the data set on HIV-1 (setting [2]) and 0.2 to 1000 nM with HIV-1 (setting [3]). Further, in data set [1], the “HLM predicted human clearance class” value is reported as “Intermediate (0.101-0.200)”.

Turning to `O=C(C(=O)N1CCN(C(=O)c2ccccc2)CC1)c1c[nH]c2c(-c3ncon3)ncc(F)c12` [Example 146], in the data set with HeLa cells, the “CC50 > 100 uM” value is “Yes”. In addition, the figures for the EC50 with HIV-1 (setting [2]) and in the data set on HIV-1 (setting [3]) were less than 1000 nM and 0.2 to 1000 nM, respectively. For the same compound, in data set [1], the “HLM predicted human clearance class” value is listed as “Intermediate (0.101-0.200)”.

For the compound `O=C(C(=O)N1CCN(C(=O)c2ccccc2)CC1)c1c[nH]c2c(-c3cn(-c4ccccc4)nn3)ccnc12` [Example 161], the “CC50 > 100 uM” value with HeLa cells is on record as “Yes”. Moreover, the figures for the EC50 in the data set with HIV-1 (setting [4]) and in the data set on HIV-1 (setting [3]) were less than 1000 nM and less than 0.2 nM, respectively. The “HLM predicted human clearance class” value in data set [1] is “High (0.201-0.300)”.

As for `O=C(C(=O)N1CCN(C(=O)c2ccccc2)CC1)c1c[nH]c2c(-n3cncn3)ccnc12` [Example 207, 1-(4-benzoyl-piperazin-1-yl)-2-(7-[1,2,4]triazol-1-yl-1H-pyrrolo[3,2-b]pyridin-3-yl)-ethane-1,2-dione], in the data set with HeLa cells, the “CC50 > 100 uM” value was “Yes”. The EC50 with HIV-1 (setting [4]) is less than 1000 nM; with HIV-1 (setting [3]), 0.2 to 1000 nM. The “HLM predicted human clearance class” value in data set [1] was “Low (0-0.100)”.

On to `O=C(C(=O)N1CCN(C(=O)c2ccccc2)CC1)c1c[nH]c2c(N3CCCC3)ncc(F)c12` [Example 221], for which the “CC50 > 100 uM” value in the data set on HeLa cells was “Yes”. In addition, the EC50 in the data set on HIV-1 (setting [2]) is less than 1000 nM; in the data set on HIV-1 (setting [3]), 0.2 to 1000 nM. In data set [1], the “HLM predicted human clearance class” value is reported as “Low (0-0.100)”.

Consider `O=C(C(=O)N1CCN(C(=O)c2ccccc2)CC1)c1c[nH]c2c(N3CCOCC3)ncc(F)c12` [Example 222], for which the “CC50 > 100 uM” value in the data set on HeLa cells is listed as “Yes”. Besides, the EC50 in the data set on HIV-1 (setting [2]) is less than 1000 nM; in the data set with HIV-1 (setting [3]), 0.2 to 1000 nM. In data set [1], the “HLM predicted human clearance class” value was “Low (0-0.100)”.

As to `CCc1ccn(-c2ncc(OC)c3c(C(=O)C(=O)N4CCN(C(=O)c5ccccc5)[C@H](C)C4)c[nH]c23)n1` [Example 230, (R)-1-benzoyl-2-methyl-4-[(4-methoxy-7-(3-ethyl-pyrazol-1-yl)-6-azaindol-3-yl)-oxoacetyl]piperazine], the “CC50 > 100 uM” value in the data set with HeLa cells is “Yes”. In addition, the EC50 in the data set on HIV-1 (setting [5]) is less than 1000 nM; with HIV-1 (setting [3]), less than 0.2 nM. In data set [1], the “HLM predicted human clearance class” value is “Intermediate (0.101-0.200)”.

Turning to `COc1cnc(-n2ccc(C)n2)c2[nH]cc(C(=O)C(=O)N3CCN(C(=O)c4ccccc4)[C@H](C)C3)c12` [Example 241, (R)-1-benzoyl-2-methyl-4-[(4-methoxy-7-(3-methyl-pyrazol-1-yl)-6-azaindol-3-yl)-oxoacetyl]piperazine], the “CC50 > 100 uM” value in the data set on HeLa cells is reported as “Yes”. Further, the EC50 is less than 1000 nM with HIV-1 (setting [5]) and less than 0.2 nM in the data set with HIV-1 (setting [3]). Also, the “HLM predicted human clearance class” value in data set [1] is listed as “Low (0-0.100)”.

As for `COc1cnc(-n2ccc(N)n2)c2[nH]cc(C(=O)C(=O)N3CCN(C(=O)c4ccccc4)CC3)c12` [Example 251, 1-benzoyl-4-[(4-methoxy-7-(3-amino-pyrazol-1-yl)-6-azaindol-3-yl)-oxoacetyl]piperazine], the “CC50 > 100 uM” value with HeLa cells is given as “Yes”. Moreover, the figures for the EC50 with HIV-1 (setting [2]) and in the data set on HIV-1 (setting [3]) were less than 1000 nM and less than 0.2 nM, respectively. The “HLM predicted human clearance class” value in data set [1] was “Low (0-0.100)”.

On to `COc1cnc(-n2ccnn2)c2[nH]cc(C(=O)C(=O)N3CCN(C(=O)c4ccccc4)[C@H](C)C3)c12` [Example 255, (R)-1-benzoyl-2-methyl-4-[(4-methoxy-7-(1,2,3-triazol-1-yl)-6-azaindol-3-yl)-oxoacetyl]piperazine], for which, in the data set with HeLa cells, the “CC50 > 100 uM” value was “Yes”. The EC50 is less than 1000 nM with HIV-1 (setting [5]) and less than 0.2 nM in the data set on HIV-1 (setting [3]). In data set [1], the “HLM predicted human clearance class” value is given as “Intermediate (0.101-0.200)”.

For `COc1cnc(-n2cnc(N)n2)c2[nH]cc(C(=O)C(=O)N3CCN(C(=O)c4ccccc4)[C@H](C)C3)c12` [Example 258, (R)-1-benzoyl-2-methyl-4-[(4-methoxy-7-(3-amino-1,2,4-triazol-1-yl)-6-azaindol-3-yl)-oxoacetyl]piperazine], in the data set on HeLa cells, the “CC50 > 100 uM” value is recorded as “Yes”. Besides, the EC50 is less than 1000 nM in the data set with HIV-1 (setting [5]) and less than 0.2 nM with HIV-1 (setting [3]). In data set [1], the “HLM predicted human clearance class” value is given as “Low (0-0.100)”.

Regarding `CCNC(=O)c1ncn(-c2ncc(OC)c3c(C(=O)C(=O)N4CCN(C(=O)c5ccccc5)CC4)c[nH]c23)n1` [Example 273, 1-benzoyl-4-[(4-methoxy-7-(3-ethylaminocarbonyl-1,2,4-triazol-1-yl)-6-azaindol-3-yl)-oxoacetyl]piperazine], in the data set with HeLa cells, the “CC50 > 100 uM” value was “Yes”. In addition, the EC50 in the data set with HIV-1 (setting [2]) is less than 1000 nM; in the data set on HIV-1 (setting [3]), less than 0.2 nM. In addition, the “HLM predicted human clearance class” value in data set [1] is reported as “Low (0-0.100)”.

Regarding `CNC(=O)c1ncn(-c2ncc(OC)c3c(C(=O)C(=O)N4CCN(C(=O)c5ccccc5)CC4)c[nH]c23)n1` [Example 274, 1-benzoyl-4-[(4-rnethoxy-7-(3-methylaminocarbonyl-1,2,4-triazol-1-yl)-6-azaindol-3-yl)-oxoacetyl]piperazine], in the data set with HeLa cells, the “CC50 > 100 uM” value is reported as “Yes”. Further, the EC50 with HIV-1 (setting [2]) is less than 1000 nM; with HIV-1 (setting [3]), less than 0.2 nM. The “HLM predicted human clearance class” value in data set [1] is given as “Low (0-0.100)”.

Values taken from patent publication US20050090522A1 (priority 2001, published 2005).
